Literature values, collected in patent US8486621B2, “Nucleic acid-based matrixes” (Cornell Research Foundation, Inc., priority 2005, dated 2013).

Columns and labels:
[1] = system: major and minor grooves of the DNA molecules
[2] = system: plasma glucose, insulin, and triglyceride levels; conditions: in vivo
PPAR-gamma = molecular target: T1, PPAR-gamma (Homo sapiens, UniProt P37231); conditions: context-specific, some cell types
T1 sequence (P37231 1-505): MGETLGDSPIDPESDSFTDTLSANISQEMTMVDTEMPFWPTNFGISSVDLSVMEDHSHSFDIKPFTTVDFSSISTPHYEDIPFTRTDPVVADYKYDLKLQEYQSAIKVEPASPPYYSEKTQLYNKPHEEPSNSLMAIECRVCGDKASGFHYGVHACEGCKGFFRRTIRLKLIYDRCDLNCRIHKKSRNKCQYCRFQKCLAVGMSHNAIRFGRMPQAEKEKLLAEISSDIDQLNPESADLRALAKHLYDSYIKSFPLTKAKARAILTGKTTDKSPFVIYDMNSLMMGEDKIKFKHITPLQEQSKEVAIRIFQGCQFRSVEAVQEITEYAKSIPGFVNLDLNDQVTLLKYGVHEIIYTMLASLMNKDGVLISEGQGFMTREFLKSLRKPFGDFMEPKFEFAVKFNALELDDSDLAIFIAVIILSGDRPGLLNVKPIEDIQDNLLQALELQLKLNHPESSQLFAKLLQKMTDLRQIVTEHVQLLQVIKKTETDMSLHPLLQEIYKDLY

SMILES | affinity to DNA [1] | efficacy in lowering plasma glucose, insulin, and triglyceride levels [2] | potency relative to rosiglitazone [2] | mode of action at PPAR-gamma (PPAR-gamma)
CC[C@@]1(O)C(=O)OCc2c1cc1n(c2=O)Cc2cc3ccccc3nc2-1 [CPT, (S)-(+)-camptothecin] | high affinity |  |  | 
O=C1NC(=O)C(Cc2ccc3cc(OCc4ccccc4F)ccc3c2)S1 (stereo not shown) [netoglitazone, 5-[{6-(2-fluorobenzyl)oxy-2-naphthyl}methyl]-2,4-thiazolidinedione] |  | more efficacious than pioglitazone and troglitazone | about three-fold more potent than rosiglitazone | full agonist of PPAR-gamma and as a partial agonist or antagonist in others
